Test system: 889142-216-R-J1-PDC complex spheroid viability
Experiment: Anticancer human tumor 889142-216-R-J1-PDC patient-derived bladder carcinoma cell line growth inhibition [POLQ]
Conditions: for IC50: curve of first compound; for viability, T/C: stronger effect = lower value
Method in brief: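 Three-cell-type spheroids modelling solid tumor plus stroma served as the readout system; POL inhibitors were tested individually and in combination, concentration ranges set by clinical Cmax where known.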

[1] = second compound 0.0316 µM, first compound 0.0316 µM
[2] = second compound 0.0316 µM, first compound 0.1 µM
[3] = second compound 0.1 µM, first compound 0.0316 µM
[4] = second compound 0.1 µM, first compound 0.1 µM
[5] = second compound 0.316 µM, first compound 0.0316 µM
[6] = second compound 0.316 µM, first compound 0.1 µM
[7] = second compound 1 µM, first compound 0.0316 µM
[8] = second compound 1 µM, first compound 0.1 µM
[9] = second compound 3.16 µM, first compound 0.0316 µM
[10] = second compound 3.16 µM, first compound 0.1 µM
[11] = second compound 10 µM, first compound 0.0316 µM
[12] = second compound 10 µM, first compound 0.1 µM
[13] = second compound 0.0316 µM, first compound 0.316 µM
[14] = second compound 0.0316 µM, first compound 1 µM
[15] = second compound 0.0316 µM, first compound 3.16 µM
[16] = second compound 0.0316 µM, first compound 10 µM
[17] = second compound 0.1 µM, first compound 0.316 µM
[18] = second compound 0.1 µM, first compound 1 µM
[19] = second compound 0.1 µM, first compound 3.16 µM
[20] = second compound 0.1 µM, first compound 10 µM
[21] = second compound 0.316 µM, first compound 0.316 µM
[22] = second compound 0.316 µM, first compound 1 µM
[23] = second compound 0.316 µM, first compound 3.16 µM
[24] = second compound 0.316 µM, first compound 10 µM
[25] = second compound 1 µM, first compound 0.316 µM
[26] = second compound 1 µM, first compound 1 µM
[27] = second compound 1 µM, first compound 3.16 µM
[28] = second compound 1 µM, first compound 10 µM
[29] = second compound 3.16 µM, first compound 0.316 µM
[30] = second compound 3.16 µM, first compound 1 µM
[31] = second compound 3.16 µM, first compound 3.16 µM
[32] = second compound 3.16 µM, first compound 10 µM
[33] = second compound 10 µM, first compound 0.316 µM
[34] = second compound 10 µM, first compound 1 µM
[35] = second compound 10 µM, first compound 3.16 µM
[36] = second compound 10 µM, first compound 10 µM
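Note: spheroids exposed to compounds for seven days.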
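Throughout, for viability, T/C: 100% = DMSO vehicle control viability.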

## CC[C@@]1(O)C(=O)OCc2c1cc1n(c2=O)Cc2cc3c(CN(C)C)c(O)ccc3nc2-1 + Cc1cccc(N(C)C(=O)C2C(O)CCN2c2nc(C)cc(C(F)(F)F)c2C#N)c1
Second compound 0.0316 µM
  IC50: > 0.1 µM
Second compound 0.1 µM
  IC50: > 0.1 µM
Second compound 0.316 µM
  IC50: > 0.1 µM
Second compound 1 µM
  IC50: > 0.1 µM
Second compound 3.16 µM
  IC50: > 0.1 µM
Second compound 10 µM
  IC50: 0.0647 µM
Second compound 0.0316 µM, first compound 0.000316 µM
  viability, T/C: 103%
Second compound 0.0316 µM, first compound 0.001 µM
  viability, T/C: 103%
Second compound 0.0316 µM, first compound 0.00316 µM
  viability, T/C: 84.2%
Second compound 0.0316 µM, first compound 0.01 µM
  viability, T/C: 76.5%
[1]
  viability, T/C: 71.2%
[2]
  viability, T/C: 56.8%
Second compound 0.1 µM, first compound 0.000316 µM
  viability, T/C: 96%
Second compound 0.1 µM, first compound 0.001 µM
  viability, T/C: 115%
Second compound 0.1 µM, first compound 0.00316 µM
  viability, T/C: 109%
Second compound 0.1 µM, first compound 0.01 µM
  viability, T/C: 83.7%
[3]
  viability, T/C: 73%
[4]
  viability, T/C: 58.9%
Second compound 0.316 µM, first compound 0.000316 µM
  viability, T/C: 97.8%
Second compound 0.316 µM, first compound 0.001 µM
  viability, T/C: 111%
Second compound 0.316 µM, first compound 0.00316 µM
  viability, T/C: 84.4%
Second compound 0.316 µM, first compound 0.01 µM
  viability, T/C: 91.8%
[5]
  viability, T/C: 72.6%
[6]
  viability, T/C: 56.6%
Second compound 1 µM, first compound 0.000316 µM
  viability, T/C: 100%
Second compound 1 µM, first compound 0.001 µM
  viability, T/C: 121%
Second compound 1 µM, first compound 0.00316 µM
  viability, T/C: 93.2%
Second compound 1 µM, first compound 0.01 µM
  viability, T/C: 82.2%
[7]
  viability, T/C: 56.2%
[8]
  viability, T/C: 61.2%
Second compound 3.16 µM, first compound 0.000316 µM
  viability, T/C: 118%
Second compound 3.16 µM, first compound 0.001 µM
  viability, T/C: 103%
Second compound 3.16 µM, first compound 0.00316 µM
  viability, T/C: 87.3%
Second compound 3.16 µM, first compound 0.01 µM
  viability, T/C: 84%
[9]
  viability, T/C: 59.2%
[10]
  viability, T/C: 57.9%
Second compound 10 µM, first compound 0.000316 µM
  viability, T/C: 73.2%
Second compound 10 µM, first compound 0.001 µM
  viability, T/C: 104%
Second compound 10 µM, first compound 0.00316 µM
  viability, T/C: 75%
Second compound 10 µM, first compound 0.01 µM
  viability, T/C: 68.3%
[11]
  viability, T/C: 52.8%
[12]
  viability, T/C: 48%

## COc1ccc([C@@H](O)c2cc(-c3ncnc4cc(N5CCOCC5)ccc34)c(F)cc2Cl)nn1 + Nc1ccc(C#CCN(C(=O)Cc2ncc(C(F)(F)F)cc2C(F)(F)F)c2ccc(F)cc2)nn1
Second compound 0.0316 µM
  IC50: 3.14 µM
Second compound 0.1 µM
  IC50: 5.02 µM
Second compound 0.316 µM
  IC50: 4.55 µM
Second compound 1 µM
  IC50: 5.06 µM
Second compound 3.16 µM
  IC50: 5.83 µM
Second compound 10 µM
  IC50: 6.74 µM
[1]
  viability, T/C: 84.6%
[2]
  viability, T/C: 80.6%
[13]
  viability, T/C: 81.5%
[14]
  viability, T/C: 87.8%
[15]
  viability, T/C: 49.8%
[16]
  viability, T/C: 35.2%
[3]
  viability, T/C: 113%
[4]
  viability, T/C: 77.5%
[17]
  viability, T/C: 80%
[18]
  viability, T/C: 73.4%
[19]
  viability, T/C: 56.8%
[20]
  viability, T/C: 39.5%
[5]
  viability, T/C: 87.5%
[6]
  viability, T/C: 95%
[21]
  viability, T/C: 72.9%
[22]
  viability, T/C: 72.8%
[23]
  viability, T/C: 54%
[24]
  viability, T/C: 39.6%
[7]
  viability, T/C: 86.2%
[8]
  viability, T/C: 72.1%
[25]
  viability, T/C: 72.4%
[26]
  viability, T/C: 65.9%
[27]
  viability, T/C: 62.2%
[28]
  viability, T/C: 37.8%
[9]
  viability, T/C: 74.3%
[10]
  viability, T/C: 65.4%
[29]
  viability, T/C: 73.8%
[30]
  viability, T/C: 65.2%
[31]
  viability, T/C: 63.2%
[32]
  viability, T/C: 39.3%
[11]
  viability, T/C: 105%
[12]
  viability, T/C: 77.9%
[33]
  viability, T/C: 96.7%
[34]
  viability, T/C: 60.1%
[35]
  viability, T/C: 56.6%
[36]
  viability, T/C: 47.5%

## C=CC(=O)N1CCN(c2nc(=O)n(-c3c(C)ccnc3C(C)C)c3nc(-c4c(O)cccc4F)c(F)cc23)C(C)C1 (stereo unspecified) + Nc1ccc(C#CCN(C(=O)Cc2ncc(C(F)(F)F)cc2C(F)(F)F)c2ccc(F)cc2)nn1
Second compound 0.0316 µM
  IC50: > 10 µM
Second compound 0.1 µM
  IC50: > 10 µM
Second compound 0.316 µM
  IC50: > 10 µM
Second compound 1 µM
  IC50: > 10 µM
Second compound 3.16 µM
  IC50: > 10 µM
Second compound 10 µM
  IC50: > 10 µM
[1]
  viability, T/C: 95.4%
[2]
  viability, T/C: 111%
[13]
  viability, T/C: 87.8%
[14]
  viability, T/C: 121%
[15]
  viability, T/C: 133%
[16]
  viability, T/C: 93.6%
[3]
  viability, T/C: 103%
[4]
  viability, T/C: 89.2%
[17]
  viability, T/C: 109%
[18]
  viability, T/C: 129%
[19]
  viability, T/C: 111%
[20]
  viability, T/C: 102%
[5]
  viability, T/C: 135%
[6]
  viability, T/C: 127%
[21]
  viability, T/C: 96.3%
[22]
  viability, T/C: 96.5%
[23]
  viability, T/C: 145%
[24]
  viability, T/C: 111%
[7]
  viability, T/C: 113%
[8]
  viability, T/C: 86%
[25]
  viability, T/C: 120%
[26]
  viability, T/C: 121%
[27]
  viability, T/C: 116%
[28]
  viability, T/C: 100%
[9]
  viability, T/C: 126%
[10]
  viability, T/C: 88.3%
[29]
  viability, T/C: 119%
[30]
  viability, T/C: 88.8%
[31]
  viability, T/C: 119%
[32]
  viability, T/C: 104%
[11]
  viability, T/C: 99.5%
[12]
  viability, T/C: 114%
[33]
  viability, T/C: 121%
[34]
  viability, T/C: 95.1%
[35]
  viability, T/C: 126%
[36]
  viability, T/C: 131%

Source: PubChem BioAssay AID1963831 (Molecular Pharmacology Branch, DTP, NCI, 2024)
